Test results from paper PMC6934184, “Selective DNA-PKcs inhibition extends the therapeutic index of localized radiotherapy and chemotherapy” (The Journal of Clinical Investigation, 2019).

Target: T1, ACVR1 (ALK2) R206H (Homo sapiens, UniProt Q04771, R206H)
T1 construct: purchased Thermo Fisher Scientific (Life Technologies) SelectScreen
Experiment: SelectScreen LanthaScreen
Format: binding
Details: read-out: % displacement
Outline: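 SelectScreen broad panel; activity (Z'LYTE, Adapta) plus binding formats. ATP: Km app for CSF1R Z'LYTE; 10 for CAMK1 Adapta. Readout = % per kinase.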

T1 sequence (Q04771 21-509 R206H): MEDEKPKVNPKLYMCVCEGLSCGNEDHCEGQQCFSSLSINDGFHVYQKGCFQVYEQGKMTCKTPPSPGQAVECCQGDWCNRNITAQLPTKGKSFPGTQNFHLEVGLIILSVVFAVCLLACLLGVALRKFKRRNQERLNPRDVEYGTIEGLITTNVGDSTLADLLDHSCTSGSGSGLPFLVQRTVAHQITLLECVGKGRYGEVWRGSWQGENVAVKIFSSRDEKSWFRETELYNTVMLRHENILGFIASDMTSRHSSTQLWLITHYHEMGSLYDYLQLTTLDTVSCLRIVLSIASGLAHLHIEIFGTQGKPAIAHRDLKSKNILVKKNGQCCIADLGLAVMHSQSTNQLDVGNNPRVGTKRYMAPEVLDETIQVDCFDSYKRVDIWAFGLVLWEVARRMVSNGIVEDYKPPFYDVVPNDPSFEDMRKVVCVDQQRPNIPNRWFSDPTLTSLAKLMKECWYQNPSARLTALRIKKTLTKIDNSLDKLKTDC

Work on CN(C(=O)CN1CCOCC1)c1ccc2sc3c(-c4cccc5c(=O)cc(N6CC7CCC(C6)O7)oc45)cccc3c2c1 [NU5455] yielded an inhibition at 1 µM of 12.6%.
